Holding throughout (assay): growth of human tumour cells (NCI), 48 h
Experiment [1] has as its system UACC-257 melanoma.
Experiment [2] concerns SK-MEL-5 melanoma.
The subject of experiment [3] is KM20L2 colon.
The subject of experiment [4] is HOP-92 NSCLC.
For experiment [5], the system named is K-562 leukemia.
For experiment [6], the system named is MOLT-4 leukemia.
In experiment [7] the test system is 786-0 renal.
Experiment [8] concerns HOP-18 NSCLC.
The subject of experiment [9] is NCI-H522 lung.
Experiment [10] relates to SNB-78 CNS.
The subject of experiment [11] is NCI/ADR-RES ovarian.
The subject of experiment [12] is A498 renal.

The results in this text go back to PubChem BioAssay (NCI).

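All cell lines were grown in 96-well plates and treated with compound for 48 hours. The concentration for full growth arrest is given as TGI.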

For the compound `CC1(C2CCC3(C)OC3C2)CO1` (stereo not given), the TGI in [1], in [2], in experiment [3], in [4], in [5] and in [6] was above 100 µM in each case. Besides, the TGI in experiment [7], in [8], in [9] and in experiment [10] was above 100 µM throughout.

For `O=C1CC(n2cccc2)c2c(Br)sc(Br)c21` (stereo not given), the TGI is 30.9 µM in [1]; 29.6 µM in experiment [2]; 69.6 µM in experiment [11]; 33.1 µM in experiment [4]; 64.8 µM in experiment [5]; 33.6 µM in experiment [6]. For the same compound, the results for the TGI in [7], in [9] and in [12] were 43.8 µM, 3.27 µM and 56.5 µM, respectively.

As for `COC(=O)[C@@H]1CN(C(=O)c2ccccc2)C(=O)N1C(=O)OCc1ccccc1`, the TGI in [1], in experiment [2], in [11], in [4], in experiment [5] and in experiment [6] was above 100 µM each time. Moreover, the TGI in experiment [7], in [9] and in experiment [12] was above 100 µM throughout.

Take `CC(C)(C)C1CC[C@H](O)[C@H]([C@H](O)CC2CC(=O)N(c3ccccc3)C(=O)C2)C1` (stereo not given in full): the TGI in experiment [1], in experiment [2], in [11], in experiment [4], in experiment [5] and in experiment [6] was above 100 µM each time. Also, the TGI in [7], in [9] and in [12] was above 100 µM throughout.

For `S=C(NCc1ccccc1)N/N=C/c1ccccn1`, the TGI in [1] was above 100 µM; in experiment [2] it was above 93.6 µM; in experiment [11] it was 8.52 µM; in experiment [4], 52.7 µM; in experiment [5], above 100 µM; in experiment [6], 16.6 µM. The TGI in [7] is above 65.3 µM; in [9], 24.5 µM; in experiment [12], above 100 µM.

With `COC(=O)c1c(-c2ccc(Cl)cc2)cc2c3ccccc3n(C)c2c1C(=O)OC`, the TGI in experiment [1], in [2], in experiment [11], in [4], in [5] and in experiment [6] was above 100 µM each time. The TGI in experiment [7], in [9] and in experiment [12] was above 100 µM each time.

Regarding `C=C1C(=O)O[C@H]2[C@H]3O[C@@H](C[C@@H]12)[C@](C)(O)CC[C@@H]1O[C@@]1(C)CCC[C@H]3C`, the TGI in experiment [1] was 89.6 µM; in experiment [2], 33.5 µM; in [11] it was above 100 µM; in experiment [4] it was 36.4 µM; in [5] it was above 100 µM; in experiment [6], above 100 µM. For the same compound, the TGI came to 33.9 µM in experiment [7], 34.6 µM in experiment [9] and 73.2 µM in experiment [12].

For `C/C(Nc1ccc(Cl)cc1Cl)=C1/CCOC1=O`, the TGI was above 100 µM in [1]; above 100 µM in [2]; above 100 µM in [11]; 51.8 µM in [4]; above 100 µM in experiment [5]; above 100 µM in [6]. The TGI in experiment [7], in experiment [9] and in [12] was above 100 µM each time.

On to `CCOC(=O)c1cnccc1CC1(C#N)c2ccccc2C=CN1C(=O)c1ccccc1` (stereo not given), for which the TGI is above 100 µM in [1]; 37.8 µM in experiment [2]; above 100 µM in [11]; above 100 µM in experiment [4]; 49.6 µM in experiment [5]; 50.8 µM in [6]. Further, the TGI in experiment [7] is above 100 µM; in experiment [9], 54.8 µM; in experiment [12], above 100 µM.

For `N#Cc1nc(C#N)n(C(=O)c2ccccc2)c1NC(=O)c1ccccc1`, the TGI in experiment [1], in experiment [2], in experiment [11], in experiment [4], in [5] and in experiment [6] was above 100 µM each time. Also, the TGI in [7], in [9] and in experiment [12] was above 100 µM each time.

`C#CCC1(C(=O)OCC)C(=O)c2ccccc2N(C)C1=O` (stereo not given): the TGI in experiment [2], in experiment [3], in [4], in [5], in experiment [6] and in [8] was above 100 µM each time. Besides, the TGI in [9] is 27.3 µM; in [12], above 100 µM; in [10], above 100 µM.

As to `N/C(=N\Nc1ccc(S(N)(=O)=O)cc1)c1cnccn1`, the TGI in [1], in experiment [2], in experiment [11], in [4], in [5] and in experiment [6] was above 100 µM in each case. The TGI in experiment [7], in [9] and in experiment [12] was above 100 µM each time.

As to `O=C(/C=C/c1cccs1)c1ccccc1Cl`, the TGI in experiment [1] was 34.2 µM; in experiment [2] it was 32.5 µM; in experiment [11] it was 44.9 µM; in [4], 97.5 µM; in experiment [5] it was above 100 µM; in experiment [6], above 23.4 µM. In addition, the TGI is 27.8 µM in [7], 15 µM in experiment [9] and 24 µM in [12].

In the case of `CC(C)C1(O)C(=O)N(c2c(F)c(F)c(F)c(F)c2F)C(=S)N1CCSc1ccccc1` (stereo not given), the TGI in [1] was 32.4 µM; in experiment [2], 32.7 µM; in [11], 31 µM; in experiment [4], 22.2 µM; in [5], 26.7 µM; in experiment [6], 30.7 µM. Also, the values for the TGI in experiment [7], in [9] and in experiment [12] were 33.3 µM, 30.5 µM and 29.8 µM, respectively.

On to `COC(=O)c1c(C)nc(C)c(NO)c1-c1ccccc1C(F)(F)F`, for which the TGI in experiment [1] was 42.8 µM; in experiment [2] it was above 100 µM; in experiment [11], 38.4 µM; in experiment [4], 29 µM; in experiment [5], above 100 µM; in [6], above 100 µM. Further, the figures for the TGI in experiment [7], in experiment [9] and in experiment [12] were 30.2 µM, 33.1 µM and above 100 µM, respectively.

As to `Cc1nc2ccc(Cl)cc2c2c1CCN2c1ccccc1`, the TGI was found to be 29.1 µM in experiment [1]; 20.7 µM in experiment [2]; 26 µM in [11]; 24.1 µM in [4]; 21.8 µM in experiment [5]; 28.5 µM in [6]. Also, the results for the TGI in experiment [7], in experiment [9] and in [12] were 25.2 µM, 28.1 µM and 34.3 µM, respectively.

Take `CC(C)(C)OC(=O)n1cc(C2CN(O)C(=O)C23CCC(=O)N3Cc2ccccc2)c2ccccc21` (stereo not given): the TGI is above 100 µM in experiment [1]; above 100 µM in experiment [2]; above 100 µM in experiment [11]; 50.8 µM in [4]; above 100 µM in [5]; above 100 µM in experiment [6]. Further, the results for the TGI in experiment [7], in [9] and in [12] were above 100 µM, 31.7 µM and 74.8 µM, respectively.

As to `Cc1cc2c(c(=O)n1C)SCC2`, the TGI in experiment [1], in experiment [2], in experiment [11], in experiment [4], in [5] and in experiment [6] was above 100 µM throughout. In addition, the TGI in [7], in [9] and in experiment [12] was above 100 µM in each case.

Take `Cc1ccc(-c2n[nH]c(=O)n2/N=C\c2ccccc2)cc1`: the TGI in [1] is above 100 µM; in [2] it was above 100 µM; in experiment [11], above 100 µM; in experiment [4], 66.4 µM; in experiment [5], above 100 µM; in [6], above 100 µM. Moreover, the TGI in experiment [7], in [9] and in [12] was above 100 µM throughout.

Turning to `COc1ccc(-c2cc(C(O)C3CCCCN3)c3ccccc3n2)cc1` (stereo not given), the TGI in experiment [1] is 4.48 µM; in experiment [2], 17.2 µM; in experiment [11], 39 µM; in experiment [4], 13.1 µM; in experiment [5], 8.24 µM; in [6], 13.6 µM. The TGI in experiment [7] was 20.6 µM; in experiment [9], 22.4 µM; in experiment [12], 25.4 µM.

Regarding `CCCNc1ncnc2[nH]ncc12`, the TGI in experiment [1], in [2], in [11], in experiment [4], in experiment [5] and in experiment [6] was above 100 µM in each case. Moreover, the TGI in experiment [7], in experiment [9] and in experiment [12] was above 100 µM each time.

As for `C(/Cc1ccc2c(c1)OCO2)=N\NC1=NCCCN1`, the TGI was above 100 µM in experiment [1]; 56.4 µM in [2]; above 100 µM in [11]; above 100 µM in experiment [4]; above 100 µM in [5]; 55.2 µM in experiment [6]. Further, the values for the TGI in [7], in experiment [9] and in [12] were above 100 µM, above 100 µM and 72.8 µM, respectively.

For `Cc1ccc(/C(O)=C/c2nc3ccc([N+](=O)[O-])cc3nc2/C=C(\O)c2ccc(C)cc2)cc1`, the TGI in [1], in experiment [2], in [11], in [4], in [5] and in [6] was above 100 µM in each case. Further, the TGI in experiment [7], in experiment [9] and in experiment [12] was above 100 µM each time.

Take `Cc1ccc(S(=O)(=O)n2cc(C#N)c(C#N)c2)cc1`: the TGI in [1] is above 100 µM; in experiment [2] it was 42 µM; in experiment [11], above 100 µM; in [4] it was 88 µM; in [5] it was above 100 µM; in experiment [6], above 100 µM. Moreover, the TGI in [7] was above 100 µM; in experiment [9] it was 40 µM; in experiment [12], 71.9 µM.

In the case of `O=C1c2ccccc2C(=O)N1c1nc(-c2ccc(Cl)cc2)cc(N2N=C(c3ccc(Br)cc3)CC2c2ccccc2)n1` (stereo not given), the TGI was above 41.4 µM in experiment [1]; 5.02 µM in [2]; 6.05 µM in experiment [11]; 82.3 µM in experiment [4]; above 100 µM in experiment [5]; above 23.7 µM in experiment [6]. In addition, the values for the TGI in [7], in [9] and in [12] were above 34.1 µM, 5.51 µM and 35.4 µM, respectively.

For `CC(=O)CC(=O)CCC(=O)O`, the TGI in experiment [1], in experiment [3], in [5], in experiment [6], in experiment [8] and in [9] was above 100 µM throughout. The compound also registered a TGI in [10] above 100 µM.

Consider `Cc1ccccc1OC(C)C(=O)NN1C(=O)CC(=O)N(c2ccccc2)C1=S` (stereo not given), for which the TGI in experiment [1], in experiment [2], in experiment [11], in experiment [4], in experiment [5] and in experiment [6] was above 100 µM in each case. In addition, the TGI in experiment [7], in experiment [9] and in experiment [12] was above 100 µM in each case.

As for `C/C(=N\Nc1nc2ccccc2[nH]1)c1cc2ccccc2cn1`, the TGI in experiment [1] was 5.67 µM; in experiment [2] it was 1.6 µM; in experiment [11], 1.16 µM; in experiment [4] it was 0.819 µM; in experiment [5], above 100 µM; in experiment [6], above 100 µM. The TGI in [7] amounted to 0.743 µM; in experiment [9] it was 1.13 µM; in experiment [12], 0.665 µM.

`CCOC(=O)C1CCCCN1CCc1c[nH]c2ccccc12` (stereo not given): the TGI in experiment [1], in [2], in experiment [11], in experiment [4], in [5] and in experiment [6] was above 100 µM in each case. Besides, the TGI in [7], in experiment [9] and in [12] was above 100 µM each time.
